Counter-ions that a name gives are not always drawn. Like-named read-outs stand apart in the source and are kept apart here.
How the values were obtained:
[1] = target: class A β-lactamase Imi-1 (Enterobacter cloacae, UniProt Q46991); experiment: IC50 determination, β-lactamase inhibition (nitrocefin, spectrophotometric); type: biochemical
Experimental: (§1) IC50 Determination for the Penem Inhibitor
(§2) β-Lactamase inhibitory activity of the penem inhibitors was determined spectrophotometrically as described by Bush et al., [Bush, K., Macalintal, C., Rasmussen, B. A., Lee, V. and Yang, Y. Antimicrobial Agents and Chemotherapy 1993, 37, 851]. Homogeneously purified class A β-lactamases TEM-1 from E. coli and Imi-1 from Enterobacter cloacae, class B enzyme CcrA from Bacteroides fragilis and class C enzyme AmpC from Enterobacter cloaca were employed in the assay. The enzyme concentrations for TEM-1, Imi-1, CcrA and AmpC were 4.3, 7.1, 1.2 and 2.1 nM, respectively. A wide range of inhibitor concentrations were prepared in 50 mM PO4, pH 7.0 to include the possible IC50 values. The substrate used to initiate the enzyme reaction was nitrocefin at 50 μg/ml in the same buffer as the inhibitor. Initially the enzyme and inhibitor (20 μl each) were preincubated for 10 minutes at 25° C. prior to the addition of 160 μl volume of nitrocefin. Initial rates of hydrolysis were monitored for 5 minutes at 495 nm using a Molecular Devices Spectra Max 250 with kinetic protocol of SoftMax Program. Readings from the Spectra Max 250 were exported and transferred to Microsoft Excel. The percent of inhibition of each inhibitor concentration was calculated based on the control enzyme activity. The inhibitor concentration that caused a 50% reduction in the enzymatic activity (IC50) was determined graphically.

class B enzyme CcrA = class B enzyme CcrA (Bacteroides fragilis, UniProt P25910); experiment: as above; type: biochemical; conditions: enzyme 1.2 nM; 10 minutes preincubation at 25° C.; nitrocefin 50 μg/ml; pH 7.0; read-out: IC50 (nM) Class B Ccr
Sequence of class B enzyme CcrA (P25910 19-249): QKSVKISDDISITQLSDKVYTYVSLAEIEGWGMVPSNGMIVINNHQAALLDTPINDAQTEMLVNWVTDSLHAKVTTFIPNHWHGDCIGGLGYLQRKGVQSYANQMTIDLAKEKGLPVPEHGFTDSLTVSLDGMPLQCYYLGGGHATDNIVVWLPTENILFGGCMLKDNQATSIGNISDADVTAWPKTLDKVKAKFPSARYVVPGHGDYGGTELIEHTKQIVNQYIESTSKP
Experimental: as §1, §2

class C enzyme AmpC = class C enzyme AmpC (Enterobacter cloacae, UniProt P05364); experiment: biochemical; design: species or system Enterobacter cloaca
Sequence of class C enzyme AmpC (P05364 21-381): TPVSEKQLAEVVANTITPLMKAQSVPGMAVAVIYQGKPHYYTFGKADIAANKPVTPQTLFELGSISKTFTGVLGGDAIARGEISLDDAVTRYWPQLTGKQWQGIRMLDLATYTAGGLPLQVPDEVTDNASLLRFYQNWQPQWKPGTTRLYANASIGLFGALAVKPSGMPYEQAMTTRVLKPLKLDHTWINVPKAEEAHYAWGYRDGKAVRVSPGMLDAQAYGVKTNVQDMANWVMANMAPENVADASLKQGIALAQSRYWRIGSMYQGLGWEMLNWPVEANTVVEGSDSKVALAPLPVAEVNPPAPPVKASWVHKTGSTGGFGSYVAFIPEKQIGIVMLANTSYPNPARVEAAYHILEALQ
Experimental: as §1, §2

[2] = target: class A β-lactamase TEM-1 (Escherichia coli, UniProt P62593); experiment: IC50 determination, β-lactamase inhibition (nitrocefin, spectrophotometric); type: biochemical, E. coli; conditions: enzyme 4.3 nM; 10 minutes preincubation at 25° C.; nitrocefin 50 μg/ml; pH 7.0
Sequence of class A β-lactamase TEM-1 (P62593 24-286 limits assumed): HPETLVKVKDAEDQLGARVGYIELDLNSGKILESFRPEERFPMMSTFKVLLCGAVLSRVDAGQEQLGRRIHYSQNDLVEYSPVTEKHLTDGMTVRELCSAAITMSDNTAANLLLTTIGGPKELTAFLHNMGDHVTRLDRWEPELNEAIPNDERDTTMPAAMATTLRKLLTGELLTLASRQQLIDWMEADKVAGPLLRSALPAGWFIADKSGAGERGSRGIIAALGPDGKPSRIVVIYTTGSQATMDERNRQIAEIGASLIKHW
Experimental: as §1, §2

[3] = system: Clinical isolates that have been adapted to cause infection in mice; experiment: In vivo antibacterial protection, 7 day survival of infected mice; design: species or system mice strain CD-1; conditions: Mus musculus, 168 h
Description: In Vivo Antibacterial Protection
Female mice strain CD-1, approximately 18-22 grams, were received from Charles River Laboratories and quarantined 7 days prior to use. In addition, mice may be rendered neutropenic using cytoxan.
Clinical isolates that have been adapted to cause infection in mice, are used in the experiment, including infections with strains of E. coli, K. pneumoniae, M. morganii, E. cloacae, S. marcescens, C. freundii, staphylococci, streptococci, P. aeruginosa and N. gonorrhoeae.
Mice are challenged by injecting 0.5 ml intraperitoneally or 0.05 ml intranasally of a predetermined bacterial inoculum suspended in broth, saline or hog gastric mucin (supplemented with dried bovine hemoglobin for N. gonorrhoeae). […] Antibacterial doses (dose concentration prepared by two fold serial dilutions of the antibiotic) are dissolved or suspended in 0.2% aqueous agar or methocel, phosphate buffered saline or an adjuvant are administered orally, subcutaneously or intravenously in the following manner: • a) Orally or subcutaneously: Dose volume of 0.5 ml administered ½ hr after infection. A second dose may be administered 3 hr. after infection for treatment of infections with more virulent organisms. • b) Intravenously: Dose volume of 0.2 ml, administered ½ hr. after infection. For the treatment of infections with more virulent organisms, more doses, up to 48 hr may be administered. (Intravenous dosing will not exceed 3 doses/24 hr period.) • c) Oral pretreatment: Under special circumstances, the pH of the stomach needs to be adjusted in order to increase the gastric stability of the antibiotic. For this purpose, 0.5 ml of phosphate buffered saline (pH7.8, 0.06M) (or specific approved adjuvant) is administered orally ½ hr after infection, followed 5 minutes later by 0.5 ml of antibiotic (also orally) contained in phosphate buffered saline (pH7.8, 0.06M). Animal Species
A detailed explanation as to the number of animals needed for the determination of in vivo efficacy follows: • A) Novel antibiotics are tested at 5 different dose levels with 5 mice per dose level at each of three routes of administration (oral, subcutaneous and intravenous). […] This would require 25 mice/route with 3 routes/antibiotic or 75 mice per novel compound tested. One to two novel antibiotics will be tested per experiment (75-150 mice) • B) The effectiveness of the new compound must be compared to that of a standard, or antibiotic of known effectiveness. Known or previously tested antibiotics are tested at 5 dose levels with 5 mice per dose level by a single route of administration, for a total of 25 mice/antibiotic. Usually 3-6 antibiotics will be tested per experiment. (75-150 mice). • C) Untreated controls—In each of the above tests, untreated animals are infected with 3 different concentrations of bacterial inoculum with 10 mice per concentration (30 mice total in each and every test). These untreated controls are used to determine and maintain the infection level between 10-100 LD50s as required for test to test comparison and validity. Determination of Protective Effects of Antibacterial Agents:
The protective effects of the antibacterial agent(s) are measured by the survival of the infected untreated as compared to the treated animals. […] A census of survivors is taken twice daily and at that time dead as well as moribund animals are removed. […] The test is performed three times on separate days to provide a statistically valid number of animals and to minimize variation in test results on a day to day and test to test basis.

[4] = enzyme 7.1 nM, 10 minutes preincubation at 25° C., nitrocefin 50 μg/ml, pH 7.0, read-out: IC50 (nM) Class A Imi
[5] = enzyme 2.1 nM, 10 minutes preincubation at 25° C., nitrocefin 50 μg/ml, pH 7.0, read-out: IC50 (nM) Class C AmpC
[6] = Ratio of Piperacillin vs. Inhibitor 4:1, read-out: ED50
[7] = Ratio of Piperacillin vs. Inhibitor not given, read-out: ED50

Sequence of class A β-lactamase Imi-1 (Q46991 28-292): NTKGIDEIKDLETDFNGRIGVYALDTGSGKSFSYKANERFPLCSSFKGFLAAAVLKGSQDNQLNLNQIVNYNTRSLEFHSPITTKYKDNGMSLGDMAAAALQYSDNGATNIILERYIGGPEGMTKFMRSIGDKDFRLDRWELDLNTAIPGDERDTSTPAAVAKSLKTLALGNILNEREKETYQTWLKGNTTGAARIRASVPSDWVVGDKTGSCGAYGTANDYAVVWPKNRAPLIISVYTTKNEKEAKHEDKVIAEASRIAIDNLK

Structure (SMILES) | IC50 [1, 4] [nM] | IC50 (class B enzyme CcrA) [nM] | IC50 (class C enzyme AmpC; [5]) [nM] | IC50 [2] [nM] | ED50 [3, 6] [mg/kg] | IC50 (class C enzyme AmpC) [nM] | ED50 ([3]; Ratio of Piperacillin vs. Inhibitor 2:1, read-out: ED50) [mg/kg] | IC50 [1] [nM] | ED50 [3, 7] [mg/kg]
CN1Cc2nc(/C=C3/C(=O)N4C(C(=O)O)=CS[C@H]34)cn2CC1=O [Example 10, (5R),(6Z)-6-(7-Methyl-6-oxo-5,6,7,8-tetrahydro-imidazo[1,2-a]pyrazin-2-ylmethylene)-7-oxo-4-thia-1-aza-bicyclo[3.2.0]hept-2-ene-2-carboxylic acid sodium salt] | 65 | 140 | 3 | 10 | – | – | – | – | –
O=C([O-])C1=CS[C@@H]2/C(=C\c3cc4n(n3)CCSC4)C(=O)N12.[Na+] [Example 11, (5R)(6Z)-6-(6,7-Dihydro-4H-pyrazolo[5,1-c][1,4]thiazin-2-ylmethylene)-7-oxo-4-thia-1-azabicyclo[3.2.0]hept-2-ene-2-carboxylic acid, sodium salt] | 18 | 61 | – | 1 | 13.9 | 1.2 | – | – | –
CN1CCn2cc(/C=C3/C(=O)N4C(C(=O)O)=CS[C@H]34)nc2C1 [Example 2, (5R),(6Z)-6-(7-Methyl-5,6,7,8-tetrahydroimidazo[1,2-a]pyrazin-2-ylmethylene)-7-oxo-4-thia-1-aza-bicyclo[3.2.0]hept-2-ene-2-carboxylic acid, sodium salt] | 22 | 120 | 5.8 | 4.4 | – | – | > 64 | – | –
O=C(O)C1=CS[C@@H]2/C(=C\c3cnc4n3CCSC4)C(=O)N12 [Example 30, (5R),(6Z)-6-(5,6-Dihydro-8-H-imidazo[2,1-c][1,4]thiazin-3-ylmethylene)-7-oxo-4-thia-1-azabicyclo[3.2.0]hept-2-ene-2-carboxylic acid] | 2300 | 7.8 | 2.5 | 2.9 | – | – | – | – | –
O=C(O)C1=CS[C@@H]2/C(=C\c3cn4c(n3)COCC4)C(=O)N12 [Example 7, (5R),(6Z)-6-(5,6-Dihydro-8H-imidazo[2,1-c][1,4]oxazin-2-ylmethylene)-7-oxo-4-thia-1-azabicyclo[3.2.0]hept-2-ene-2-carboxylic acid, sodium salt] | – | 66 | 4.8 | 0.4 | 22.8 | – | – | 7.8 | –
CC(=O)N1CCc2sc(/C=C3/C(=O)N4C(C(=O)[O-])=CS[C@H]34)cc2C1.[Na+] (single isomer, unassigned) [Example 34, Sodium salt] | 34 | 99 | 6.5 | 4.2 | – | – | – | – | –
CC1(C)Cc2cc(/C=C3/C(=O)N4C(C(=O)[O-])=CS[C@H]34)nn2C1.[Na+] [Example 26, (5R)(6Z)-6-(5,5-Dimethyl-4H-1,6a-diazapentalen-2-ylmethylene)-7-oxo-4-thia-1-azabicyclo[3.2.0]hept-2-ene-2-carboxylic acid, sodium salt] | 54 | 89 | – | 0.73 | – | 2.3 | – | – | 30
O=C(O)C1=CS[C@@H]2/C(=C\c3cc4n(n3)CCC4)C(=O)N12 [Example 8, (5R),(6Z)-6-(5,6-Dihydro-4H-pyrrolo[1,2-b]pyrazol-2-ylmethylene)-7-oxo-4-thia-1-azabicyclo[3.2.0]hept-2-ene-2-carboxylic acid, sodium salt] | 50 | 14 | 1.5 | 1.2 | – | – | – | – | –
O=C(O)C1=CS[C@@H]2/C(=C\c3cc4c(s3)CCN(Cc3cccnc3)C4)C(=O)N12 [Example 21] | 40 | 280 | 18 | 9.8 | – | – | – | – | –
O=C(O)C1=CSC2C(=Cc3cc4c(s3)CCOC4)C(=O)N12 (centres unmarked) [Example 15, 6-(6,7-Dihydro-4H-thieno[3,2-c]pyran-2-ylmethylene)-7-oxo-4-thia-1-aza-bicyclo[3.2.0]hept-2-ene-2-carboxylic acid] | 8.6 | 14 | 3.8 | 1.2 | – | – | – | – | –
O=C([O-])C1=CS[C@@H]2/C(=C\c3cc4n(n3)CCS4)C(=O)N12.[Na+] [Example 32, (5R)(6Z)-6-(2,3-Dihydropyrazolo[5,1-b]thiazol-6-ylmethylene)-7-oxo-4-thia-1-azabicyclo[3.2.0]hept-2-ene-2-carboxylic acid, sodium salt] | – | – | – | – | – | – | – | – | 46
O=C(O)C1=CS[C@@H]2/C(=C\c3cn4c(n3)CN(Cc3ccccc3)CC4)C(=O)N12 [Example 20, (5R),(6Z)-6-(7-Benzyl-5,6,7,8-tetrahydroimidazo[1,2-a]pyrazin-2-ylmethylene)-7-oxo-4-thia-1-azabicyclo[3.2.0]hept-2-ene-2-carboxylic acid, sodium salt] | 9.6 | 18 | 3.1 | 1.4 | – | – | – | – | –
CCOC(=O)N1CCc2sc(C=C3C(=O)N4C(C(=O)O)=CSC34)cc2C1 (centres unmarked) [Example 18, 2-(2-Carboxy-7-oxo-4-thia-1-aza-bicyclo[3.2.0]hept-2-en-6-ylidenemethyl)-6,7-dihydro-4H-thieno[3,2-c]pyridine-5-carboxylic acid ethyl ester] | 50 | 120 | 9.2 | 2.8 | – | – | – | – | –
O=C(O)C1=CSC2C(=Cc3cc4c(s3)CCSC4)C(=O)N12 (centres unmarked) [Example 16, 6-(6,7-Dihydro-4H-thieno[3,2-c]thiopyran-2-ylmethylene)-7-oxo-4-thia-1-aza-bicyclo[3.2.0]hept-2-ene-2-carboxylic acid] | 25 | 12 | 4.2 | 3.1 | – | – | – | – | –
O=C(O)C1=CS[C@@H]2/C(=C\c3cc4n(n3)CCOC4=O)C(=O)N12 [Example 14, (5R,6Z)-7-oxo-6-[(4-oxo-6,7-dihydro-4H-pyrazolo[5,1-c][1,4]oxazin-2-yl)methylene]-4-thia-1-azabicyclo[3.2.0]hept-2-ene-2-carboxylic Acid] | 68 | 26 | 3.8 | 2.5 | – | – | – | – | –
O=C([O-])C1=CS[C@@H]2/C(=C\c3cc4n(n3)CSCC4)C(=O)N12.[Na+] [Example 28, (5R)(6Z)-6-(4,5-Dihydro-6-thia-1,7a-diazainden-2-ylmethylene)-7-oxo-4-thia-1-azabicyclo[3.2.0]hept-2-ene-2-carboxylic acid, sodium salt] | – | – | – | – | – | – | – | – | 31
